Measurements: the supplement of paper PMC8882468

What follows are molecules tested on HCI-002 (organoid from a triple-negative breast cancer xenograft) (assay: CTG-3D luminescence at 96 h relative to day-0 seeding control (ratio to day 0); higher = more growth / less cytotoxicity; PDxO 3D drug screen, 96 h, CTG-3D normalised to day-0 seeding control.). Settings: 0.1 µM; days in culture: 191.

| SMILES | CTG-3D luminescence at 96 h |
| --- | --- |
| NC1(C(=O)N[C@@H](CCO)c2ccc(Cl)cc2)CCN(c2nc[nH]c3nccc2-3)CC1 [capivasertib] | 2.57 |
| CC(C)n1nc(-c2ccc3oc(N)nc3c2)c2c(N)ncnc21 [sapanisertib] | 1.04 |
| O=C(c1ccc(F)c(F)c1Nc1ccc(I)cc1F)N1CC(O)([C@@H]2CCCCN2)C1 [cobimetinib] | 1.88 |
| C[C@H](NC(=O)CCC(F)(F)F)C(=O)N[C@@H]1C(=O)N(CCO)c2ncccc2-c2ccccc21 [crenigacestat] | 2.19 |
| Cc1cc(Nc2ncc(Cl)c(Nc3ccccc3S(=O)(=O)C(C)C)n2)c(OC(C)C)cc1C1CCNCC1 [ceritinib] | 2.41 |
| CS(=O)(=O)c1ccc(C(=O)Nc2ccc(Cl)c(-c3ccccn3)c2)c(Cl)c1 [vismodegib] | 3.23 |
| NC(=O)c1cccc2cn(-c3ccc([C@@H]4CCCNC4)cc3)nc12 [niraparib] | 2.51 |

Same assay, conditions: 0.1 µM; days in culture: 209

| SMILES | CTG-3D luminescence at 96 h |
| --- | --- |
| C[C@@H]1COCCN1c1cc(C2([S@](C)(=N)=O)CC2)nc(-c2cc[nH]c3nccc2-3)n1 [ceralasertib] | 2 |
| CCN1CCN(Cc2ccc(Nc3ncc(F)c(-c4cc(F)c5nc(C)n(C(C)C)c5c4)n3)nc2)CC1 [abemaciclib] | 1.36 |
| NC1(C(=O)N[C@@H](CCO)c2ccc(Cl)cc2)CCN(c2nc[nH]c3nccc2-3)CC1 [capivasertib] | 1.92 |
| CC(C)n1nc(-c2ccc3oc(N)nc3c2)c2c(N)ncnc21 [sapanisertib] | 0.676 |
| O=C(c1ccc(F)c(F)c1Nc1ccc(I)cc1F)N1CC(O)([C@@H]2CCCCN2)C1 [cobimetinib] | 1.78 |
| C[C@H](NC(=O)CCC(F)(F)F)C(=O)N[C@@H]1C(=O)N(CCO)c2ncccc2-c2ccccc21 [crenigacestat] | 1.91 |
| Cc1cc(Nc2ncc(Cl)c(Nc3ccccc3S(=O)(=O)C(C)C)n2)c(OC(C)C)cc1C1CCNCC1 [ceritinib] | 2.14 |
| CS(=O)(=O)c1ccc(C(=O)Nc2ccc(Cl)c(-c3ccccn3)c2)c(Cl)c1 [vismodegib] | 2.3 |
| NC(=O)c1cccc2cn(-c3ccc([C@@H]4CCCNC4)cc3)nc12 [niraparib] | 1.96 |

Same assay, conditions: 0.1 µM; days in culture: 227

| SMILES | CTG-3D luminescence at 96 h |
| --- | --- |
| C[C@@H]1COCCN1c1cc(C2([S@](C)(=N)=O)CC2)nc(-c2cc[nH]c3nccc2-3)n1 [ceralasertib] | 5.47 |
| CCN1CCN(Cc2ccc(Nc3ncc(F)c(-c4cc(F)c5nc(C)n(C(C)C)c5c4)n3)nc2)CC1 [abemaciclib] | 2.91 |
| NC1(C(=O)N[C@@H](CCO)c2ccc(Cl)cc2)CCN(c2nc[nH]c3nccc2-3)CC1 [capivasertib] | 6.73 |
| CC(C)n1nc(-c2ccc3oc(N)nc3c2)c2c(N)ncnc21 [sapanisertib] | 1.33 |
| O=C(c1ccc(F)c(F)c1Nc1ccc(I)cc1F)N1CC(O)([C@@H]2CCCCN2)C1 [cobimetinib] | 4.53 |
| C[C@H](NC(=O)CCC(F)(F)F)C(=O)N[C@@H]1C(=O)N(CCO)c2ncccc2-c2ccccc21 [crenigacestat] | 5.6 |
| Cc1cc(Nc2ncc(Cl)c(Nc3ccccc3S(=O)(=O)C(C)C)n2)c(OC(C)C)cc1C1CCNCC1 [ceritinib] | 5.99 |
| CS(=O)(=O)c1ccc(C(=O)Nc2ccc(Cl)c(-c3ccccn3)c2)c(Cl)c1 [vismodegib] | 4.14 |
| NC(=O)c1cccc2cn(-c3ccc([C@@H]4CCCNC4)cc3)nc12 [niraparib] | 3.79 |

Same assay, conditions: 1 µM; days in culture: 62

| SMILES | CTG-3D luminescence at 96 h |
| --- | --- |
| C[C@@H]1COCCN1c1cc(C2([S@](C)(=N)=O)CC2)nc(-c2cc[nH]c3nccc2-3)n1 [ceralasertib] | 1.81 |
| CCN1CCN(Cc2ccc(Nc3ncc(F)c(-c4cc(F)c5nc(C)n(C(C)C)c5c4)n3)nc2)CC1 [abemaciclib] | 1.79 |
| NC1(C(=O)N[C@@H](CCO)c2ccc(Cl)cc2)CCN(c2nc[nH]c3nccc2-3)CC1 [capivasertib] | 2.34 |
| CC(C)n1nc(-c2ccc3oc(N)nc3c2)c2c(N)ncnc21 [sapanisertib] | 0.579 |
| O=C(c1ccc(F)c(F)c1Nc1ccc(I)cc1F)N1CC(O)([C@@H]2CCCCN2)C1 [cobimetinib] | 1.32 |
| C[C@H](NC(=O)CCC(F)(F)F)C(=O)N[C@@H]1C(=O)N(CCO)c2ncccc2-c2ccccc21 [crenigacestat] | 2.3 |
| Cc1cc(Nc2ncc(Cl)c(Nc3ccccc3S(=O)(=O)C(C)C)n2)c(OC(C)C)cc1C1CCNCC1 [ceritinib] | 2.11 |
| CS(=O)(=O)c1ccc(C(=O)Nc2ccc(Cl)c(-c3ccccn3)c2)c(Cl)c1 [vismodegib] | 3.05 |
| NC(=O)c1cccc2cn(-c3ccc([C@@H]4CCCNC4)cc3)nc12 [niraparib] | 1.36 |

Same assay, conditions: 1 µM; days in culture: 82

| SMILES | CTG-3D luminescence at 96 h |
| --- | --- |
| C[C@@H]1COCCN1c1cc(C2([S@](C)(=N)=O)CC2)nc(-c2cc[nH]c3nccc2-3)n1 [ceralasertib] | 1.5 |
| CCN1CCN(Cc2ccc(Nc3ncc(F)c(-c4cc(F)c5nc(C)n(C(C)C)c5c4)n3)nc2)CC1 [abemaciclib] | 1.8 |
| NC1(C(=O)N[C@@H](CCO)c2ccc(Cl)cc2)CCN(c2nc[nH]c3nccc2-3)CC1 [capivasertib] | 1.92 |
| CC(C)n1nc(-c2ccc3oc(N)nc3c2)c2c(N)ncnc21 [sapanisertib] | 0.633 |
